Paper PMC6205638, “Exploring natural genetic variation in tomato sucrose synthases on the basis of increased kinetic properties” (PLoS ONE, 2018)

Tests used:
SuSy3-haplotype#10 = test system: T1, SuSy3-haplotype#10; test: sucrose cleavage; UDP-glucose quantified by UDP-glucose dehydrogenase / NADH; Michaelis-Menten fit; assay type: biochemical, Solanum neorickii; conditions: 4 mM UDP, 20 mM HEPES pH 7.5, 25 °C; IEX-purified only (lower purity)
T1 construct: natural wild-species haplotype, full length (805 aa), in pDR195, expressed in Saccharomyces cerevisiae 22574d, IEX-purified only; equals S. lycopersicum SuSy3 haplotype#1 with S53A/S106I/Q349L/E727D/K741E (natural differences)
Excerpt: sucrose cleavage; UDP-glucose quantified by UDP-glucose dehydrogenase / NADH; Michaelis-Menten fit on SuSy3-haplotype#10

SuSy3-haplotype#9 = test system: T2, SuSy3-haplotype#9; test: as above; assay type: biochemical, Solanum arcanum; conditions: 4 mM UDP, 20 mM HEPES pH 7.5, 25 °C; IMAC-purified
T2 construct: natural wild-species haplotype, full length (805 aa), in pDR195, expressed in Saccharomyces cerevisiae 22574d, IEX- and IMAC-purified; equals S. lycopersicum SuSy3 haplotype#1 with S53A/S106I/E727D/K741E (natural differences)
Excerpt: sucrose cleavage; UDP-glucose quantified by UDP-glucose dehydrogenase / NADH; Michaelis-Menten fit on SuSy3-haplotype#9

## OC[C@H]1O[C@@](CO)(O[C@H]2O[C@H](CO)[C@@H](O)[C@H](O)[C@H]2O)[C@@H](O)[C@@H]1O [sucrose]
SuSy3-haplotype#10
  Km: 58 ± 14 mM
SuSy3-haplotype#9
  Km: 33 ± 9 mM
